Measurements taken from patent US9572895B2, “Multiplexed supramolecular assemblies for non-viral delivery of genetic material” (The Board of Trustees of the University of Illinois, priority 2010, dated 2017).

System: plasmid DNA
Assay: Gel retardation assay on plasmid DNA
Assay type: binding
Conditions: various agent:DNA mass ratios, 1% agarose gel
Description: A solution of DNA (1 μg/10 μL) was prepared in doubled distilled water. Appropriate amounts of spermine, DOS or oligoarginine dissolved in double distilled water were added to the DNA solution (10 μL) to achieve the desired spermine:DNA, DOS:DNA or Arg9:DNA weight ratio (FIGS. 6 and 7). Complexes were incubated at room temperature for 15 min, after which loading dye was added and the solution (10 μL) was run on a 1% agarose gel (70 V, 70 min). DNA was stained with ethidium bromide and visualized on a Gel Doc imaging system (Biorad, Herclues, Calif.).

Substance: H-Arg-Arg-Arg-Arg-Arg-Arg-Arg-Arg-Arg-OH trifluoroacetate salt [Arg9]
- electrostatic interaction with plasmid DNA (gel retardation): confirming the electrostatic interaction
